Data from PMC12470716, “Inhibitory Effect of Fucoidan Analogs on Highly Metastatic Gastric Cancer Cells via Galectin-4 Inhibition” (International Journal of Molecular Sciences, 2025).

Columns and labels:
galectin-4 = biological target: T1, galectin-4 (Homo sapiens, UniProt P56470); assay: SPR (Biacore X100, galectin-4 immobilised on CM5), multi cycle; settings: 25 °C, HBS-EP pH 7.4; LNT 31.3–500 μM; read-out: equilibrium binding constant
T1 construct: gene LGALS4; full-length, His-tagged (pQE-9), E. coli M15[pREP4], TALON purified; two CRDs (N-CRD and C-CRD), approx. 36 kDa; amine-coupled on CM5 chip for SPR
T1 sequence (P56470 1-323): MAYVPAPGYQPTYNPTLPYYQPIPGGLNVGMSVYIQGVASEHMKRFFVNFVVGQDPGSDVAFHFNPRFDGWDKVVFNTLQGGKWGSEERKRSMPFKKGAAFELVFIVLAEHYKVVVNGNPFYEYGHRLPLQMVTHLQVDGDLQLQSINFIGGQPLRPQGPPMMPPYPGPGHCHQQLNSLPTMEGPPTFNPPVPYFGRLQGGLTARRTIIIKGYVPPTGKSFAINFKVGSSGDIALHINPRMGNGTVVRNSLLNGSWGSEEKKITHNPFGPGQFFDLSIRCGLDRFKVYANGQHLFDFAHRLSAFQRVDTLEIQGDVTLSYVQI

MKN45 = assay: cells; set-up: ATP-based cell viability assay, growth inhibition of MKN45 in FCS-free medium, 3 days; settings: Homo sapiens, MKN-45, 72 h; read-out: Growth inhibition (IC50) MKN45
Method: For growth inhibition experiments, MKN45 or NUGC4 cells were grown in 96-well plates at 5 × 10^3/well on the previous day, and the cell supernatant was discarded and washed once with phosphate-buffered saline (PBS). Fucoidan or fucoidan analog solutions diluted in FCS-free Advanced RPMI 1640 medium were added to the cells and cultured for another 3 days. Cell proliferation was measured using the ATP-based cell viability assay. We first measured the inhibitory activities of all synthesized fucoidan analogs 1–14 to narrow down the candidate. […] Next, the inhibitory activity of fucoidan analogs on the proliferation of MKN45 cells was measured (Figure 3A). […] From the viewpoint of growth and binding inhibitory activities, we narrowed it down to 2, 3, 10, 12, and 14 for further investigation.

NUGC4 WT = assay: cells; set-up: ATP-based cell viability assay, growth inhibition of wild-type NUGC4 in FCS-free medium, 3 days; settings: Homo sapiens, NUGC-4, 72 h; read-out: Growth inhibition (IC50) NUGC4 WT
Method: For growth inhibition experiments, MKN45 or NUGC4 cells were grown in 96-well plates at 5 × 10^3/well on the previous day, and the cell supernatant was discarded and washed once with phosphate-buffered saline (PBS). Fucoidan or fucoidan analog solutions diluted in FCS-free Advanced RPMI 1640 medium were added to the cells and cultured for another 3 days. Cell proliferation was measured using the ATP-based cell viability assay. Fucoidan analogs inhibited the proliferative ability of NUGC4 cells, but minimal inhibitory activity was observed against KO cells (Figure 3B).

Row | Kd (galectin-4) | IC50 (MKN45) | Structure (SMILES) | IC50 (NUGC4 WT)
1 | 200 µM | – | CC(=O)N[C@H]1[C@H](O[C@H]2[C@@H](O)[C@@H](CO)O[C@@H](O[C@H]3[C@H](O)[C@@H](O)C(O)O[C@@H]3CO)[C@@H]2O)O[C@H](CO)[C@@H](O)[C@@H]1O[C@@H]1O[C@H](CO)[C@H](O)[C@H](O)[C@H]1O (some centres unmarked) [LNT] | –
2 | – | > 100 µM | CCCCCCCCOC1O[C@@H](C)[C@@H](O)[C@@H](O[C@@H]2O[C@@H](C)[C@@H](O)[C@@H](O[C@@H]3O[C@@H](C)[C@@H](O)[C@@H](O[C@@H]4O[C@@H](C)[C@@H](O)[C@@H](OS(=O)(=O)O)[C@@H]4OS(=O)(=O)O)[C@@H]3OS(=O)(=O)O)[C@@H]2OS(=O)(=O)O)[C@@H]1OS(=O)(=O)O (some centres unmarked) [compound 3, fucoidan analog 3] | > 50 µM
3 | – | > 100 µM | CCCCCCCCOC1OC(C)C(O)C(OC2OC(C)C(O)C(OC3OC(C)C(O)C(OC4OC(C)C(O)C(O)C4O)C3O)C2O)C1O (centres unmarked) [compound 4, 4] | –
4 | – | – | CCCCCCCCO[C@H]1O[C@@H](C)[C@@H](O[C@@H]2O[C@@H](C)[C@@H](O[C@@H]3O[C@@H](C)[C@@H](O[C@@H]4O[C@@H](C)[C@@H](OS(=O)(=O)O)[C@@H](OS(=O)(=O)O)[C@@H]4OS(=O)(=O)O)[C@@H](OS(=O)(=O)O)[C@@H]3OS(=O)(=O)O)[C@@H](OS(=O)(=O)O)[C@@H]2OS(=O)(=O)O)[C@@H](OS(=O)(=O)O)[C@@H]1OS(=O)(=O)O [compound 10, fucoidan analog 10] | < 50 µM
5 | – | > 100 µM | CCCCCCCCO[C@H]1O[C@@H](C)[C@@H](O[C@@H]2O[C@@H](C)[C@@H](O[C@@H]3O[C@@H](C)[C@@H](O[C@@H]4O[C@@H](C)[C@@H](O)[C@@H](O)[C@@H]4OS(=O)(=O)O)[C@@H](O)[C@@H]3OS(=O)(=O)O)[C@@H](O)[C@@H]2OS(=O)(=O)O)[C@@H](O)[C@@H]1OS(=O)(=O)O [compound 12, fucoidan analog 12] | > 50 µM
6 | – | > 100 µM | CCCCCCCCOC1OC(C)C(OC2OC(C)C(OC3OC(C)C(OC4OC(C)C(O)C(O)C4O)C(O)C3O)C(O)C2O)C(O)C1O (centres unmarked) [compound 13, 13] | –
